Results from patent US11787810B2, “Diacylglyceride O-acyltransferase 2 inhibitors” (Merck Sharp & Dohme Corp., priority 2020, dated 2023).

These molecules were tested against human DGAT2 (hDGAT2) (Homo sapiens (Human), UniProt Q96PD7) (assay: DGAT2 enzymatic activity assay (13C18-triolein formation, LC/MS/MS)). Conditions: hDGAT2 Sf-9 membrane prep, 25 μM diolein, 5 μM 13C oleoyl-CoA; read-out: Human DGAT2 IC50.
Type: biochemical
Procedure: Sf-9 insect cells were maintained in Grace's insect cell culture medium with 10% heated-inactivated fetal bovine serum, 1% Pluronic F-68 and 0.14 μg/ml Kanamycine sulfate at 27° C. in a shaker incubator. After infection with untagged baculovirus expressing human DGAT2 (hDGAT2) at multiplicity of infection (MOI) 3 for 48 hours, cells were harvested. Cell pellets were suspended in buffer containing 10 mM Tris-HCl pH 7.5, 1 mM EDTA, 250 mM sucrose and Complete Protease Inhibitor Cocktail (Sigma Aldrich), and sonicated on ice. Cell debris were removed by centrifugation at 2000×g for 15 minutes. Membrane fractions were isolated by ultracentrifugation (100,000×g), resuspended in the same buffer, and frozen (−80° C.) for later use. The protein concentration was determined with the Pierce™ BCA Protein Assay Kit (Thermo Fisher Scientific). Expression of protein levels was analyzed by immunoblotting with rabbit anti-DGAT2 antibody (Abcam, ab102831) and donkey anti-rabbit IgG H&L Alexa Fluor® 647 (Abcam, ab150075) followed by detection using Typhoon FLA9000 (GE Healthcare).
LC/MS/MS analyses were performed using Thermal Fisher's LX4-TSQ Vantage system. This system consists of an Agilent binary high-performance liquid chromatography (HPLC) pumps and a TSQ Vantage triple quadrupole MS/MS instrument. For each sample, 2 μL samples from the top organic layer of in-plate liquid-liquid extraction were injected onto a Thermo Betabasic C4 column (2.1 mm×20 mm, 5 μm particle size). The samples were then eluted using the following conditions; mobile phase: Isopropanol:acetonitrile/10 mM ammonium formate=50/35/15 (v/v/v), flow rate: 0.8 mL/min, temperature: 25° C. Data was acquired in positive mode using a heated electrospray ionization (HESI) interface. The operational parameters for the TSQ Vantage MS/MS instrument were a spray voltage of 3000 V, capillary temperature of 280° C., vaporizer temperature 400° C., sheath gas 45 arbitrary unit, Aux gas 10 arbitrary units, S-lens 165 and collision gas 1.0 mTorr. […] (SRM) chromatograms of ^13C18-triolein (Q1: 920.8>Q3:621.3) and internal standard ^13C21-triolein (Q1: 923.8>Q3:617.3) were collected for 33 sec. The peak area was integrated by Xcalibur Quan software. The ratio between the ^13C18triolein generated in the reaction and spiked in internal standard ^13C21-triolein was used to generate percentage inhibition and IC50 values. Compound percentage inhibition was calculated by the following formula: Inhibition %=1-[(compound response−low control)/(high control−low control)]×100%. Potent compounds were titrated and IC50 were calculated by 4 parameter sigmoidal curve fitting formula.
DGAT2 activity was determined by measuring the amount of enzymatic product ^13C18-triolein (^13C-1,2,3-Tri(cis-9-octadecenoyl)glycerol) using the membrane prep mentioned above. The assay was carried out in ABgene 384-well assay plates in a final volume of 25 μL at rt. The assay mixture contained the following: assay buffer (100 mM Tris·Cl, pH 7.0, 20 mM MgCl2, 5% ethanol), 25 μM of diolein, 5 μM of ^13C oleoyl-CoA and 8 ng/μL of DGAT2 membrane.

human DGAT2 (hDGAT2), sequence (Q96PD7 whole entry): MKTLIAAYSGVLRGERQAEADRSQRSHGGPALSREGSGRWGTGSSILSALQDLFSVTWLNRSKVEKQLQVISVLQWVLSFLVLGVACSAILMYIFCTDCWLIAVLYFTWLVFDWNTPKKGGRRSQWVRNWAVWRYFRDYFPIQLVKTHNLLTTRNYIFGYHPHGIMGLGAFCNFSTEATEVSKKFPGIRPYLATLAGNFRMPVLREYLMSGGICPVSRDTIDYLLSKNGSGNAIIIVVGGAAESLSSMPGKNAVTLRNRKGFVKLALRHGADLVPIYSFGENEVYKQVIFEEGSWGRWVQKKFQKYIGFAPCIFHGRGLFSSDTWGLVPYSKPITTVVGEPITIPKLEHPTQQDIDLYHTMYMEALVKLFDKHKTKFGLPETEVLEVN

Point of comparison: `CC(O)C(C)NC(=O)c1cnc2c(-c3cccc(OC(F)F)c3)nn(C(C)C)c2c1` (single isomer, unassigned) [Example 45b, 3-(3-(difluoromethoxy)phenyl)-N-(3-hydroxybutan-2-yl)-1-isopropyl-1H-pyrazolo[4,3-b]pyridine-6-carboxamide], IC50 520 nM. Against it:
- CC(C)n1nc(-c2cccc(OC(F)F)c2)c2ncc(C(=O)NC(CO)C(F)(F)F)cc21 (racemic) [Example 52, 3-(3-(difluoromethoxy)phenyl)-1-isopropyl-N-(1,1,1-trifluoro-3-hydroxypropan-2-yl)-1H-pyrazolo[4,3-b]pyridine-6-carboxamide] — 13-fold lower, 41 nM
- CC(C)n1nc(-c2cccc(OC(F)F)c2)c2ncc(C(=O)NC3(CO)CCOC3)cc21 (single isomer, unassigned) [Example 39a, 3-[3-(difluoromethoxy)phenyl]-N-[3-(hydroxymethyl)tetrahydrofuran-3-yl]-1-isopropyl-pyrazolo[4,3-b]pyridine-6-carboxamide] — 27-fold lower, 19 nM
- CC(C)n1nc(-c2cccc(OC(F)F)c2)c2ncc(C(=O)NC3(CO)CCOC3)cc21 (single isomer, unassigned) [Example 39b, 3-[3-(difluoromethoxy)phenyl]-N-[3-(hydroxymethyl)tetrahydrofuran-3-yl]-1-isopropyl-pyrazolo[4,3-b]pyridine-6-carboxamide] — 14-fold lower, 38 nM
- CC(O)C(C)NC(=O)c1cnc2c(-c3cccc(OC(F)F)c3)nn(C(C)C)c2c1 (single isomer, unassigned) [Example 45c, 3-(3-(difluoromethoxy)phenyl)-N-(3-hydroxybutan-2-yl)-1-isopropyl-1H-pyrazolo[4,3-b]pyridine-6-carboxamide] — within 1.5-fold, 498 nM
- CC(O)C(C)NC(=O)c1cnc2c(-c3cccc(OC(F)F)c3)nn(C(C)C)c2c1 (single isomer, unassigned) [Example 45d, 3-(3-(difluoromethoxy)phenyl)-N-(3-hydroxybutan-2-yl)-1-isopropyl-1H-pyrazolo[4,3-b]pyridine-6-carboxamide] — 5.2-fold higher, 2730 nM
- CC(C)n1nc(-c2cccc(OC(F)F)c2)c2ncc(C(=O)NC(C)(C)C(C)O)cc21 (single isomer, unassigned) [Example 46a, 3-(3-(difluoromethoxy)phenyl)-N-(3-hydroxy-2-methylbutan-2-yl)-1-isopropyl-1H-pyrazolo[4,3-b]pyridine-6-carboxamide] — 35-fold lower, 15 nM
- CC(C)n1nc(-c2cccc(OC(F)F)c2)c2ncc(C(=O)NC(C)(C)C(C)O)cc21 (single isomer, unassigned) [Example 46b, 3-(3-(difluoromethoxy)phenyl)-N-(3-hydroxy-2-methylbutan-2-yl)-1-isopropyl-1H-pyrazolo[4,3-b]pyridine-6-carboxamide] — 40-fold lower, 13 nM
- CC(C)n1nc(-c2cccc(OC(F)F)c2)c2ncc(C(=O)NC3(C(C)(C)O)CCOC3)cc21 (single isomer, unassigned) [Example 47a, 3-(3-(difluoromethoxy)phenyl)-N-(3-(2-hydroxypropan-2-yl)tetrahydrofuran-3-yl)-1-isopropyl-1H-pyrazolo[4,3-b]pyridine-6-carboxamide] — 2.7-fold higher, 1410 nM
- CC(C)n1nc(-c2cccc(OC(F)F)c2)c2ncc(C(=O)NC3(C(C)(C)O)CCOC3)cc21 (single isomer, unassigned) [Example 47b, 3-(3-(difluoromethoxy)phenyl)-N-(3-(2-hydroxypropan-2-yl)tetrahydrofuran-3-yl)-1-isopropyl-1H-pyrazolo[4,3-b]pyridine-6-carboxamide] — 10-fold lower, 50 nM
- CC(C)n1nc(-c2cccc(OC(F)F)c2)c2ncc(C(=O)NC3(C)CCOC3)cc21 (single isomer, unassigned) [Example 48a, 3-(3-(difluoromethoxy)phenyl)-1-isopropyl-N-(3-methyltetrahydrofuran-3-yl)-1H-pyrazolo[4,3-b]pyridine-6-carboxamide] — 83-fold lower, 6.3 nM
- CC(C)n1nc(-c2cccc(OC(F)F)c2)c2ncc(C(=O)NC3(C)CCOC3)cc21 (single isomer, unassigned) [Example 48b, 3-(3-(difluoromethoxy)phenyl)-1-isopropyl-N-(3-methyltetrahydrofuran-3-yl)-1H-pyrazolo[4,3-b]pyridine-6-carboxamide] — 32-fold lower, 16 nM
- CC(C)n1nc(-c2cccc(OC(F)F)c2)c2ncc(C(=O)NC3(C(C)O)CCOC3)cc21 (single isomer, unassigned) [Example 50a, 3-(3-(difluoromethoxy)phenyl)-N-(3-(1-hydroxyethyl)tetrahydrofuran-3-yl)-1-isopropyl-1H-pyrazolo[4,3-b]pyridine-6-carboxamide] — 3.9-fold lower, 132 nM
- CC(C)n1nc(-c2cccc(OC(F)F)c2)c2ncc(C(=O)NC3(C(C)O)CCOC3)cc21 (single isomer, unassigned) [Example 50b, 3-(3-(difluoromethoxy)phenyl)-N-(3-(1-hydroxyethyl)tetrahydrofuran-3-yl)-1-isopropyl-1H-pyrazolo[4,3-b]pyridine-6-carboxamide] — 17-fold lower, 31 nM
- CC(C)n1nc(-c2cccc(OC(F)F)c2)c2ncc(C(=O)NC3(C(C)O)CCOC3)cc21 (single isomer, unassigned) [Example 50c, 3-(3-(difluoromethoxy)phenyl)-N-(3-(1-hydroxyethyl)tetrahydrofuran-3-yl)-1-isopropyl-1H-pyrazolo[4,3-b]pyridine-6-carboxamide] — 4.8-fold lower, 108 nM
- CC1(NC(=O)c2cnc3c(-c4cccc(OC(F)F)c4)nn([C@@H]4COC[C@H]4O)c3c2)CS(=O)(=O)C1 (single isomer, unassigned) [Example 53a, 3-(3-(difluoromethoxy)phenyl)-1-((trans)-4-hydroxytetrahydrofuran-3-yl)-N-(3-methyl-1,1-dioxidothietan-3-yl)-1H-pyrazolo[4,3-b]pyridine-6-carboxamide] — 32-fold lower, 16 nM
- CC1(NC(=O)c2cnc3c(-c4cccc(OC(F)F)c4)nn([C@@H]4COC[C@H]4O)c3c2)CS(=O)(=O)C1 (single isomer, unassigned) [Example 53b, 3-(3-(difluoromethoxy)phenyl)-1-((trans)-4-hydroxytetrahydrofuran-3-yl)-N-(3-methyl-1,1-dioxidothietan-3-yl)-1H-pyrazolo[4,3-b]pyridine-6-carboxamide] — 3.9-fold lower, 132 nM
- C[C@]1(NC(=O)c2cnc3c(-c4cccc(OC(F)F)c4)nn(C4CCOC4)c3c2)CCS(=O)(=O)C1 (single isomer, unassigned) [Example 60a] — within 1.5-fold, 600 nM
- C[C@]1(NC(=O)c2cnc3c(-c4cccc(OC(F)F)c4)nn(C4CCOC4)c3c2)CCS(=O)(=O)C1 (single isomer, unassigned) [Example 60b] — 14-fold lower, 37 nM
- C[C@]1(NC(=O)c2cnc3c(-c4cccc(OC(F)F)c4)nn(C4CCCOC4)c3c2)CCS(=O)(=O)C1 (single isomer, unassigned) [Example 62a] — 8.8-fold lower, 59 nM
- C[C@]1(NC(=O)c2cnc3c(-c4cccc(OC(F)F)c4)nn(C4CCCOC4)c3c2)CCS(=O)(=O)C1 (single isomer, unassigned) [Example 62b] — 4.5-fold lower, 116 nM
- CCC(C)n1nc(-c2cccc(OC(F)F)c2)c2ncc(C(=O)NC3(C)CS(=O)(=O)C3)cc21 (single isomer, unassigned) [Example 66a, 3-[3-(difluoromethoxy)phenyl]-N-(3-methyl-1,1-dioxo-thietan-3-yl)-1-sec-butyl-pyrazolo[4,3-b]pyridine-6-carboxamide] — 7.3-fold lower, 71 nM
- CCC(C)n1nc(-c2cccc(OC(F)F)c2)c2ncc(C(=O)NC3(C)CS(=O)(=O)C3)cc21 (single isomer, unassigned) [Example 66b, 3-[3-(difluoromethoxy)phenyl]-N-(3-methyl-1,1-dioxo-thietan-3-yl)-1-sec-butyl-pyrazolo[4,3-b]pyridine-6-carboxamide] — 350-fold lower, 1.5 nM
- CC1(NC(=O)c2cnc3c(-c4cccc(OC(F)F)c4)nn(CC(O)C(F)(F)F)c3c2)CS(=O)(=O)C1 (single isomer, unassigned) [Example 67a, 3-(3-(difluoromethoxy)phenyl)-N-(3-methyl-1,1-dioxidothietan-3-yl)-1-(3,3,3-trifluoro-2-hydroxypropyl)-1H-pyrazolo[4,3-b]pyridine-6-carboxamide] — 7.1-fold lower, 73 nM
